Test results taken from US20200339691A1, “PROTEINACEOUS MOLECULES AND USES THEREFOR” (priority 2018, published 2020).
Where a SMILES comes first, the peptide text is derived from it. The star is where a group is joined. Myristoyl = CCCCCCCCCCCCCC(=O)*

Assays:
[1] = tested on: CD44^hiCD24^lo CSCs in MDA-MB-231 cells; assay: FACS analysis of CD44^hiCD24^lo cancer stem cells in MDA-MB-231 cells treated with P1 analogues; assay type: cell-based, human; settings: 50 μM peptide, 48 hours; for CD44^hiCD24^lo CSCs (%) / COI, Live Single CD44^hiCD24^lo CSCs (Cell Count): n = 1; for Average Inhibition of CSCs (%) / CD44^hiCD24^lo CSCs (%) Repeat 1 / CD44^hiCD24^lo CSCs (%) Repeat 2 / CD44^hiCD24^lo CSCs (%) Repeat 3: n = 3
Experimental: Analogues of P1 (Table 6) were designed and synthesized in accordance with the procedure of Example 5. The ability of these analogues to inhibit cancer stem cells was determined using FACS analysis on MDA-MB-231 cells, which constitutively contain approximately 90% CD44^hiCD24^lo cancer stem cells, treated with the peptides.
(§1) Non-adherent cells were removed during the washing steps.

MDA-MB-231 cells = assay type: cell-based, human; settings: 50 μM peptide, 48 hours, n = 1
Text: as §1
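Wherever COI, Live Single Cells (Cell Count) is given: live means Hoechst-negative events among single cells.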

SMILES	Inhibition of CSCs (%) Repeat 1 [1]	Inhibition of CSCs (%) Repeat 2 [1]	Inhibition of CSCs (%) Repeat 3 [1]	CD44^hiCD24^lo CSCs (%) [1]	COI, Live Single CD44^hiCD24^lo CSCs (Cell Count) [1]	Average Inhibition of CSCs (%) [1]	CD44^hiCD24^lo CSCs (%) Repeat 1 [1]	CD44^hiCD24^lo CSCs (%) Repeat 2 [1]	CD44^hiCD24^lo CSCs (%) Repeat 3 [1]	COI (Cell Count) (MDA-MB-231 cells)	COI, Live Single Cells (Cell Count) (MDA-MB-231 cells)	COI, Single (Cell Count) (MDA-MB-231 cells)	Total Cell Count (MDA-MB-231 cells)
CCCCCCCCCCCCCC(=O)N[C@@H](CC(C)C)C(=O)N[C@H](C(=O)N[C@@H](Cc1ccccc1)C(=O)N[C@H](C(=O)N[C@@H](Cc1ccccc1)C(=O)N[C@@H](CCCNC(=N)N)C(=O)N[C@@H](CC(C)C)C(=O)N[C@@H](CCCNC(=N)N)C(=O)N[C@@H](CCCCN)C(=O)NCC(=O)N[C@@H](CCCNC(=N)N)C(=O)N[C@@H](CCC(=O)O)C(=O)N[C@@H](CCSC)C(=O)N[C@@H](CC(=O)O)C(=O)N[C@H](C(=O)N[C@@H](CCCCN)C(=O)N[C@@H](CCCCN)C(N)=O)C(C)C)[C@@H](C)CC)[C@@H](C)O [Peptide 2853832, Myristoyl-LTFIFRLRKGREMDVKK-NH2] (Myristoyl-LTFIFRLRKGREMDVKK-NH2)	93.78%	94.44%	94.90%	2.48%	11	94.37%	5.58%	4.99%	4.58%	674	444	515	2068
CCCCCCCCCCCCCC(=O)N[C@@H](CC(C)C)C(=O)N[C@H](C(=O)N[C@@H](Cc1ccccc1)C(=O)N[C@H](C(=O)N[C@@H](Cc1ccccc1)C(=O)N[C@@H](CCCNC(=N)N)C(=O)N[C@@H](CC(C)C)C(=O)N[C@@H](CCCNC(=N)N)C(=O)N[C@@H](CCCCN)C(=O)NCC(=O)N[C@@H](CCCNC(=N)N)C(=O)N[C@@H](CCCCN)C(=O)N[C@@H](CCSC)C(=O)N[C@@H](CC(=O)O)C(=O)N[C@H](C(=O)N[C@@H](CCCCN)C(=O)N[C@@H](CCCCN)C(N)=O)C(C)C)[C@@H](C)CC)[C@@H](C)O [Peptide 2853833, Myristoyl-LTFIFRLRKGRKMDVKK-NH2] (Myristoyl-LTFIFRLRKGRKMDVKK-NH2)	70.25%	75.23%	85.46%	12.50%	9	76.98%	26.67%	22.22%	13.04%	495	72	363	4559
CCCCCCCCCCCCCC(=O)N[C@@H](CC(C)C)C(=O)N[C@H](C(=O)N[C@@H](Cc1ccccc1)C(=O)N[C@H](C(=O)N[C@@H](Cc1ccccc1)C(=O)N[C@@H](CCCNC(=N)N)C(=O)N[C@@H](CC(C)C)C(=O)N[C@@H](CCCNC(=N)N)C(=O)N[C@@H](CCCCN)C(=O)NCC(=O)N[C@@H](CCCNC(=N)N)C(=O)N[C@@H](CCSC)C(=O)N[C@@H](CCC(=O)O)C(=O)N[C@@H](CC(=O)O)C(=O)N[C@H](C(=O)N[C@@H](CCCCN)C(=O)N[C@@H](CCCCN)C(N)=O)C(C)C)[C@@H](C)CC)[C@@H](C)O [Peptide 2853834, Myristoyl-LTFIFRLRKGRMEDVKK-NH2] (Myristoyl-LTFIFRLRKGRMEDVKK-NH2)	91.98%	92.08%	92.04%	5.76%	22	92.03%	7.18%	7.11%	7.14%	890	382	660	4207
CCCCCCCCCCCCCC(=O)N[C@@H](CC(C)C)C(=O)N[C@H](C(=O)N[C@@H](Cc1ccccc1)C(=O)N[C@H](C(=O)N[C@@H](Cc1ccccc1)C(=O)N[C@@H](CCCNC(=N)N)C(=O)N[C@@H](CC(C)C)C(=O)N[C@@H](CCCNC(=N)N)C(=O)N[C@@H](CCCCN)C(=O)NCC(=O)N[C@@H](CCCNC(=N)N)C(=O)N[C@@H](CCSC)C(=O)N[C@@H](CCCCN)C(=O)N[C@@H](CC(=O)O)C(=O)N[C@H](C(=O)N[C@@H](CCCCN)C(=O)N[C@@H](CCCCN)C(N)=O)C(C)C)[C@@H](C)CC)[C@@H](C)O [Peptide 2853835, Myristoyl-LTFIFRLRKGRMKDVKK-NH2] (Myristoyl-LTFIFRLRKGRMKDVKK-NH2)	90.70%	90.45%	89.87%	2.50%	1	90.34%	8.33%	8.57%	9.09%	1733	40	1292	8580
CCCCCCCCCCCCCC(=O)N[C@@H](CC(C)C)C(=O)N[C@H](C(=O)N[C@@H](Cc1ccccc1)C(=O)N[C@H](C(=O)N[C@@H](Cc1ccccc1)C(=O)N[C@@H](CCCNC(=N)N)C(=O)N[C@@H](CC(C)C)C(=O)N[C@@H](CCCNC(=N)N)C(=O)N[C@@H](CCCCN)C(=O)NCC(=O)N[C@@H](CCCNC(=N)N)C(=O)N[C@@H](CCSC)C(=O)N[C@@H](CCSC)C(=O)N[C@@H](CCCCN)C(=O)N[C@H](C(=O)N[C@@H](CCCCN)C(=O)N[C@@H](CCCCN)C(N)=O)C(C)C)[C@@H](C)CC)[C@@H](C)O [Peptide 2853836, Myristoyl-LTFIFRLRKGRMMKVKK-NH2] (Myristoyl-LTFIFRLRKGRMMKVKK-NH2)	88.84%	82.17%	86.35%	9.30%	8	85.79%	10.00%	16.00%	12.24%	761	86	547	5448
CCCCCCCCCCCCCC(=O)N[C@@H](CC(C)C)C(=O)N[C@H](C(=O)N[C@@H](Cc1ccccc1)C(=O)N[C@H](C(=O)N[C@@H](Cc1ccccc1)C(=O)N[C@@H](CCCNC(=N)N)C(=O)N[C@@H](CC(C)C)C(=O)N[C@@H](CCCNC(=N)N)C(=O)N[C@@H](CCCCN)C(=O)NCC(=O)N[C@@H](CCCNC(=N)N)C(=O)N[C@@H](CCSC)C(=O)N[C@@H](CCSC)C(=O)N[C@H](C(=O)N[C@H](C(=O)N[C@@H](CCCCN)C(=O)N[C@@H](CCCCN)C(N)=O)C(C)C)C(C)C)[C@@H](C)CC)[C@@H](C)O [Peptide 2853837, Myristoyl-LTFIFRLRKGRMMVVKK-NH2] (Myristoyl-LTFIFRLRKGRMMVVKK-NH2)	93.82%	93.76%	88.86%	5.53%	13	92.15%	5.54%	5.59%	10.00%	452	235	364	4805
CCCCCCCCCCCCCC(=O)N[C@@H](CC(C)C)C(=O)N[C@H](C(=O)N[C@@H](Cc1ccccc1)C(=O)N[C@H](C(=O)N[C@@H](Cc1ccccc1)C(=O)N[C@@H](CCCNC(=N)N)C(=O)N[C@@H](CC(C)C)C(=O)N[C@@H](CCCNC(=N)N)C(=O)N[C@@H](CCCCN)C(=O)NCC(=O)N[C@@H](CCCNC(=N)N)C(=O)N[C@@H](CCSC)C(=O)N[C@@H](CCSC)C(=O)N[C@@H](CC(=O)O)C(=O)N[C@@H](CCC(=O)O)C(=O)N[C@@H](CCCCN)C(=O)N[C@@H](CCCCN)C(N)=O)[C@@H](C)CC)[C@@H](C)O [Peptide 2853838, Myristoyl-LTFIFRLRKGRMMDEKK-NH2] (Myristoyl-LTFIFRLRKGRMMDEKK-NH2)	86.55%	81.44%	86.40%	10.16%	31	84.80%	12.05%	16.65%	12.20%	408	305	333	888
CCCCCCCCCCCCCC(=O)N[C@@H](CC(C)C)C(=O)N[C@H](C(=O)N[C@@H](Cc1ccccc1)C(=O)N[C@H](C(=O)N[C@@H](Cc1ccccc1)C(=O)N[C@@H](CCCNC(=N)N)C(=O)N[C@@H](CC(C)C)C(=O)N[C@@H](CCCNC(=N)N)C(=O)N[C@@H](CCCCN)C(=O)NCC(=O)N[C@@H](CCCNC(=N)N)C(=O)N[C@@H](CCSC)C(=O)N[C@@H](CCSC)C(=O)N[C@@H](CC(=O)O)C(=O)N[C@H](C(=O)N[C@@H](CCCNC(=N)N)C(=O)N[C@@H](CCCCN)C(N)=O)C(C)C)[C@@H](C)CC)[C@@H](C)O [Peptide 2853840, Myristoyl-LTFIFRLRKGRMMDVRK-NH2] (Myristoyl-LTFIFRLRKGRMMDVRK-NH2)	82.01%	81.08%	83.80%	18.83%	58	82.30%	16.13%	16.97%	14.54%	709	308	487	3715
